Source: publication PMC4279419, “Angiostatic, tumor inflammatory and anti-tumor effects of CXCL4^47–70 and CXCL4L1^47–70 in an EGF-dependent breast cancer model” (Oncotarget, 2014)
Where no end group is shown, it is not given here.

Columns and labels:
macrophage markers = assay: qPCR tumor macrophage marker expression; assay type: in vivo, murine; settings: 2.5 μg intratumoral 3×/week; 2^−ΔΔCT
Experimental: (§1) The RNeasy Mini Kit (QIAGEN, Venlo, the Netherlands) was used for tumor mRNA extraction. The extracted mRNA was then converted to cDNA making use of the High Capacity cDNA Reverse Transcription Kit (Applied Biosystems, Foster City, CA). Quantitative polymerase chain reactions (qPCR) based on the TaqMan principle were conducted to compare gene expression between samples. Primers and probes (Table 2; Integrated DNA Technologies, Haasrode, Belgium), were diluted to the prescribed working concentrations in RNase-free water and added to the reaction mix in a MicroAmp® fast optical 96-well reaction plate (Applied Biosystems), together with 50 ng sample cDNA per reaction. The actual thermocycler program consisted of 2 minutes on 50 °C, 10 minutes on 95 °C and 40 cycles of 15 seconds on 95 °C followed by 1 minute on 60 °C. Analysis of the obtained CT was based on the 2^−ΔΔC^T method, opting for 18S ribosomal 1 RNA as an internal control.

CHO/CXCR3B cells = assay: CXCR3B binding (flow cytometry); settings: NH2-terminally biotinylated peptides, 3 to 3000 ng/ml, data not shown
Source text: We further tried to reveal the mode of action of CXCL4^47–70 and CXCL4L1^47–70. First, we excluded that either peptide still binds/activates one of the CXCR3 isoforms, the receptors for intact CXCL4 and CXCL4L1.

CXCR3A = assay: Calcium signaling in CXCR3A-transfectants; assay type: cell-based; settings: CHO/CXCR3A, one representative experiment out of three; for calcium signal via CXCR3A: 2 μg/ml, fura 2, spectrofluorometer; for inhibition of CXCL10-induced calcium signaling (desensitization): peptide 2 μg/ml, CXCL10 5 ng/ml added 100 s later, fura 2
Source text: We further tried to reveal the mode of action of CXCL4^47–70 and CXCL4L1^47–70. First, we excluded that either peptide still binds/activates one of the CXCR3 isoforms, the receptors for intact CXCL4 and CXCL4L1. […]
inhibit signaling by intact CXCL10. To study interaction of CXCL447–70 and CXCL4L147–70 with CXCR3A, CHO cells stably transfected with CXCR3A were loaded with the fluorescent dye fura 2 (Struyf et al. J. Immunol. 2009, 182:666). Changes in the intracellular Ca2+ concentrations ([Ca2+]i) in response to CXCL447–70 or CXCL4L147–70 treatment were monitored using a spectrofluorometer. The line in the spectra indicates the fluorescence intensity ratio (i.e. the fluorescence intensity measured after excitation at 340 nm divided by the fluorescence intensity measured after excitation at 380 nm). The results shown (one representative experiment out of three) illustrate a desensitization experiment, in which CHO/CXCR3A cells were stimulated first with a peptide (2 µg/ml) and 100 s later with intact CXCL10 […]
peptides induced a rise in [Ca2+]i. When the cells were stimulated with 5 ng/ml intact CXCL10 100 s after peptide treatment, the response […]
interact with CXCR3A. Arrows indicate the time of addition of the stimulus.
(also on this page, place not known: www.impactjournals.com/oncotarget/ Oncotarget, Supplementary Materials 2014 CXCL4 47–70 CXCL4L1 47–70 CXCL4 47–70 CXCL4L1 47–70 CXCL4 47–70) […]

CCL5 = CCL5 binding (heterodimerization) assay in 96-well plates; set-up: species or system human; settings: biotinylated peptides; 37 °C; 50 ng/ml CCL5 coated; OD450; n=3
Experimental: GAG, EGF and CCL5 binding were quantified in 96-well plates following a similar protocol. GAG binding was evaluated by immobilizing low molecular weight heparin (Iduron, Manchester, UK) on EpranEx plates (BD Biosciences), whereas EGF as well as CCL5 recombinant human protein (R&D Systems and PeproTech, respectively) was immobilized on high protein-binding ELISA plates (Corning life sciences, Tewksbury, MA). In brief, 25 μg/ml GAG [diluted in assay buffer 100 mM NaCl, 50 mM NaAc, pH 7.2, and 0.2% (v/v) Tween-20], 2 μg/ml EGF or 50 ng/ml CCL5 (both diluted in PBS), was coated overnight at room temperature on 96-well plates. Plates were washed three times with either assay buffer or 0.5% (v/v) Tween 20 in PBS and blocked at 37°C with buffer enriched with either 0.2% (w/v) gelatin (heparin binding assay) or 0.1% (w/v) casein (EGF or CCL5 binding assay). Subsequently, a dilution curve of biotinylated CXCL4L1^47–70 and CXCL4^47–70 peptide was pipetted on the plate and incubated at 37 °C to allow interaction with heparin, EGF or CCL5. After washing, retained biotinylated peptide was detected by peroxidase-conjugated streptavidin. Peroxidase activity was quantified by measuring the conversion of 3,3′,5,5′-tetramethylbenzidine (Sigma-Aldrich) at 450 nm.

B16 melanoma = settings: previous study by our group; cited from earlier work
Source text: The chemokines CXCL4 and CXCL4L1 have both been attributed anti-tumoral activity as a result of angiostatic action, blockade of lymphatic vessel formation and the attraction of anti-tumoral lymphocytes. CXCL4L1 is considered to be a more powerful angiostatic and anti-tumoral agent than its homologue CXCL4, despite their striking 96% sequence identity. This functional difference has been linked to a single amino acid replacement, causing CXCL4L1 to adapt a unique carboxy-terminal 3D-structure with decreased affinity for GAGs. However, the causal link ...

endothelial cell = settings: cited from earlier work
Experimental: We investigated whether CXCL4^47–70 and CXCL4L1^47–70 counteracted other growth factors with similar efficiency. Consistent with previous work, both CXCL4^47–70 and CXCL4L1^47–70 (0.4 μg/ml) reduced FGF2-induced GM7373 prolifera ...

CD204 = assay: qPCR tumor CD204 mRNA (M2 marker); assay type: in vivo, murine; settings: 2.5 μg intratumoral 3×/week; 2^−ΔΔCT
Experimental: as §1

IL-12 = assay: qPCR tumor IL-12 mRNA (M1 marker); assay type: in vivo, murine; settings: 2.5 μg intratumoral 3×/week; 2^−ΔΔCT; not reaching statistical significance
Experimental: as §1

CD11c = assay: qPCR tumor CD11c mRNA (dendritic cell marker); assay type: in vivo, murine; settings: 2.5 μg intratumoral 3×/week; 2^−ΔΔCT; p=0.032, n=10
Experimental: as §1

muCCL5 = assay: qPCR stromal CCL5 mRNA; assay type: in vivo, murine; settings: 2.5 μg intratumoral 3×/week; 2^−ΔΔCT; p=0.020, n=7
Experimental: as §1

monocytic THP-1 = settings: as a single stimulus; cited from earlier work
Source text: Perception of the role of the immune system in tumor development has changed over time. Tumor inflammation is indeed the seventh hallmark of malignant disease, but the sizeable myeloid population present has been mostly observed to take on a tumor-promoting role rather than exert its protective, phagocytic and cytotoxic function. This shift could be attributed to the phagocytes' versatility and their ability to adopt distinct phenotypes influenced by locally produced factors. Rather than depleting the tumoral myeloid cell population, it could be beneficial to tackle its pola ...

Substance: CXCL4L1^47–70: synthetic human carboxy-terminal peptide restricted to the last 24 amino acids of CXCL4L1, Fmoc chemistry
- macrophage marker expression versus vehicle (macrophage markers): No significant changes in macrophage marker expression
- specific binding to CHO/CXCR3B (CHO/CXCR3B cells): could not detect specific binding
- calcium signal via CXCR3A (CXCR3A): Nor could we detect any calcium signal
- calcium signal via CXCR3A (CXCR3A; listed as CXCL4L147–70): do not induce calcium signaling via CXCR3A
- inhibition of CXCL10-induced calcium signaling (desensitization) (CXCR3A): neither peptide (2 μg/ml) was capable of inhibiting calcium signaling
- inhibition of CXCL10-induced calcium signaling (desensitization) (CXCR3A; listed as CXCL4L147–70): equal to the signal obtained after buffer stimulation
- binding to CCL5-coated plate (CCL5): directly and equally well interacted with CCL5
- effect in treatment of B16 melanoma (B16 melanoma): beneficial effects of CXCL4L1^47–70
- block of FGF2-induced endothelial cell motility and proliferation (endothelial cell): retained the ability to block FGF2-induced endothelial cell motility and proliferation

Substance: CXCL4^47–70: synthetic human carboxy-terminal peptide restricted to the last 24 amino acids of CXCL4, Fmoc chemistry (NGRKICLDLQAPLYKKIIKKLLES; not fully specified (N-terminus))
- CD204 mRNA versus control (CD204): only a modest increase
- IL-12 mRNA versus control (IL-12): only modestly increased
- CD11c mRNA versus vehicle (CD11c): more prominent
- stromal CCL5 expression versus vehicle (muCCL5): significantly upregulated
- specific binding to CHO/CXCR3B (CHO/CXCR3B cells): could not detect specific binding
- calcium signal via CXCR3A (CXCR3A): Nor could we detect any calcium signal
- calcium signal via CXCR3A (CXCR3A; listed as CXCL447–70): do not induce calcium signaling via CXCR3A
- inhibition of CXCL10-induced calcium signaling (desensitization) (CXCR3A): neither peptide (2 μg/ml) was capable of inhibiting calcium signaling
- inhibition of CXCL10-induced calcium signaling (desensitization) (CXCR3A; listed as CXCL447–70): equal to the signal obtained after buffer stimulation
- binding to CCL5-coated plate (CCL5): directly and equally well interacted with CCL5
- THP-1 migration, single stimulus (monocytic THP-1): not to stimulate monocytic THP-1 migration
- block of FGF2-induced endothelial cell motility and proliferation (endothelial cell): retained the ability to block FGF2-induced endothelial cell motility and proliferation
